Type in all cases: biochemical
The target of one assay is T1, CDK2/cyclinE1 (Homo sapiens, UniProt P24941).
T1 construct: purchased Carna Biosciences 04-165
Kind of assay: Cyclin-dependent kinase activity assay (continuous ATP coupling assay), CDK2/cyclinE1. The note with it: CDK2/cyclinE1 5 nM, ATP 300 μM, Rb copeptide 100 μM, 15 min preincubation, pH 7.5, 1% DMSO. The method, boiled down:
(§1)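 PK/LDH-coupled continuous assay, ATP at each kinase's Km, Tris pH 7.5 with 1% DMSO final; enzyme preincubated 15 min with compound (10 μM to 0.05 nM, 1:3), NADH fluorescence decrease (ex 340/em 460) gave velocities. IC50 by 4-variable fit; Ki by quadratic/Morrison fit.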

In another assay the target is T2, CDK4/cyclinD3 (Homo sapiens, UniProt P11802).
T2 construct: purchased Carna Biosciences 04-105
Kind of assay: Cyclin-dependent kinase activity assay (continuous ATP coupling assay), CDK4/cyclinD3. As to conditions: CDK4/cyclinD3 60 nM, ATP 500 μM, Rb copeptide 500 μM, 15 min preincubation, pH 7.5, 1% DMSO. The method, boiled down: as §1

The target in the next assay is T3, CDK6/cyclinD3 (Homo sapiens, UniProt Q00534).
T3 construct: purchased Carna Biosciences 04-107
Description: Cyclin-dependent kinase activity assay (continuous ATP coupling assay), CDK6/cyclinD3. The note with it: CDK6/cyclinD3 25 nM, ATP 500 μM, Rb copeptide 500 μM, 15 min preincubation, pH 7.5, 1% DMSO. The method, boiled down:
as §1

The target of another assay is T4, CDK1/cyclinB1 (Homo sapiens, UniProt P06493).
T4 construct: purchased Carna Biosciences 04-102
Description: Cyclin-dependent kinase activity assay (continuous ATP coupling assay), CDK1/cyclinB1. As to conditions: CDK1/cyclinB1 10 nM, ATP 200 μM, Histone1 copeptide 100 μM, 15 min preincubation, pH 7.5, 1% DMSO. The method, boiled down:
as §1

T4 sequence (P06493 whole entry): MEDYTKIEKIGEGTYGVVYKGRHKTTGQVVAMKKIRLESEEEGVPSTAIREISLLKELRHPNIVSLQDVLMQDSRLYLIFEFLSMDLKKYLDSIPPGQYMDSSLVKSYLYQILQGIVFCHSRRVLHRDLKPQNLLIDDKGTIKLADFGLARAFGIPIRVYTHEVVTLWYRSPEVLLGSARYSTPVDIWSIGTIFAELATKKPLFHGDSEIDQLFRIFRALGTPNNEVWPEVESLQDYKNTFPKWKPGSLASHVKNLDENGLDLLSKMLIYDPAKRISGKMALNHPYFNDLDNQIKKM
T4 sequence (P14635 whole entry partner): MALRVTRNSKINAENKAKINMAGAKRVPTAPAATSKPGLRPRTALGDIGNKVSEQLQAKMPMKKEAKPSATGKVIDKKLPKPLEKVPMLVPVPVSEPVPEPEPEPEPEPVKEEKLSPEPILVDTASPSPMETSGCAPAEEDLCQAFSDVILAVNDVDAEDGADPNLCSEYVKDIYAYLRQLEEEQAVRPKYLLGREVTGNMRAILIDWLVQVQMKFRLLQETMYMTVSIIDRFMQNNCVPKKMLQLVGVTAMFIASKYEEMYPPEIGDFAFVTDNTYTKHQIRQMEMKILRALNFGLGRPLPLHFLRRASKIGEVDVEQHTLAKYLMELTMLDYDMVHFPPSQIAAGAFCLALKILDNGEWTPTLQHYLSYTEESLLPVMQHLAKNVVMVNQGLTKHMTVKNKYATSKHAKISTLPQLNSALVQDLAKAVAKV
T2 sequence (P11802 whole entry): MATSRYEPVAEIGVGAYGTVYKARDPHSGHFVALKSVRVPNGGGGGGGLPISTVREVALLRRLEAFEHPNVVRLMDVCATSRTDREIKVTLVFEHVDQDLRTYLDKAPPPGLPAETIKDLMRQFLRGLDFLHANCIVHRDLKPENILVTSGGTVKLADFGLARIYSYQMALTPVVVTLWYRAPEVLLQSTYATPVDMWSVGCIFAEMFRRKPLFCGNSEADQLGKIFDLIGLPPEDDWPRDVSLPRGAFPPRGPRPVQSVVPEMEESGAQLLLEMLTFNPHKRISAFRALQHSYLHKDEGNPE
T2 sequence (P30281 whole entry partner): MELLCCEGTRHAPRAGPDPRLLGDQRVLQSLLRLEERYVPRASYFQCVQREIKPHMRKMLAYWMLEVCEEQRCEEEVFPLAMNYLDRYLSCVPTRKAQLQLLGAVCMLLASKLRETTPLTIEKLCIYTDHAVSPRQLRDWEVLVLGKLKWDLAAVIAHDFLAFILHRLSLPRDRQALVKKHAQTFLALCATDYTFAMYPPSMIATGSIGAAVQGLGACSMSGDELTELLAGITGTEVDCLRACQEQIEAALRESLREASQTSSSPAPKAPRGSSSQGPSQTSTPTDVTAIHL
T3 sequence (Q00534 whole entry): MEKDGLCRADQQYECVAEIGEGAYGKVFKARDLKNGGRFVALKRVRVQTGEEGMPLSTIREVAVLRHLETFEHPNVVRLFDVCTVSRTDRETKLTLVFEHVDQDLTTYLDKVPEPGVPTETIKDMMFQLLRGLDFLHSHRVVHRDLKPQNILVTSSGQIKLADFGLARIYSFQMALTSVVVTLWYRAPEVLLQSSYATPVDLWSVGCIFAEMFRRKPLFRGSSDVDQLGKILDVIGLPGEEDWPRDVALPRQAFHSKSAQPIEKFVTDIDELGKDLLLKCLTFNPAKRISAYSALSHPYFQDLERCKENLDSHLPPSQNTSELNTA
T3 sequence (P30281 whole entry partner): as the sequence (P30281 whole entry partner) above

As for `CNS(=O)(=O)c1ccc(Nc2ncc(C(F)(F)F)c(-n3cc(CC(C)(C)O)cn3)n2)cc1` [Example 2, 4-((4-(4-(2-hydroxy-2-methylpropyl)-1H-pyrazol-1-yl)-5-(trifluoromethyl)pyrimidin-2-yl)amino)-N-methylbenzenesulfonamide], the IC50 against CDK2/cyclinE1 is no more than 10 nM; against CDK4/cyclinD3, 10 to 100 nM; on CDK6/cyclinD3, 10 to 100 nM; against CDK1/cyclinB1 it was 10 to 100 nM.
For the compound `CNS(=O)(=O)c1ccc(Nc2ncc(C(F)(F)F)c(-n3cc(N4CCCC4=O)cn3)n2)cc1` [Example 88, N-methyl-4-[[4-[4-(2-oxopyrrolidin-1-yl)pyrazol-1-yl]-5-(trifluoromethyl)pyrimidin-2-yl]amino]benzene sulfonamide], the IC50 against CDK2/cyclinE1 was 10 to 100 nM; on CDK4/cyclinD3, no less than 100 nM; against CDK6/cyclinD3 it was no less than 100 nM; on CDK1/cyclinB1, no less than 100 nM.
Take `CNS(=O)(=O)c1ccc(Nc2ncc(C(F)(F)F)c(-n3cc(C)cn3)n2)cc1` [Example 46]: the IC50 against CDK2/cyclinE1 is no more than 10 nM; against CDK4/cyclinD3, 10 to 100 nM; on CDK6/cyclinD3 it was no less than 100 nM; against CDK1/cyclinB1 it was no less than 100 nM.
For the compound `O=C1NCc2cc(Nc3ncc(C(F)(F)F)c(-n4cccn4)n3)ccc21` [Example 39], the IC50 against CDK2/cyclinE1, at CDK4/cyclinD3, against CDK6/cyclinD3 and against CDK1/cyclinB1 was no less than 100 nM each time.
On to `[2H]C([2H])([2H])NS(=O)(=O)c1ccc(Nc2ncc(C(F)(F)F)c(-n3cccn3)n2)cc1` [Example 17], for which the IC50 was no more than 10 nM at CDK2/cyclinE1, no less than 100 nM at CDK4/cyclinD3, no less than 100 nM against CDK6/cyclinD3 and no less than 100 nM against CDK1/cyclinB1.
On to `CNS(=O)(=O)c1ccc(Nc2ncc(C(F)(F)F)c(-n3cc([C@H]4CCC[C@@H]4O)cn3)n2)cc1` (single isomer, unassigned) [Example 75], for which the IC50 was 10 to 100 nM at CDK2/cyclinE1, 10 to 100 nM against CDK4/cyclinD3, no less than 100 nM at CDK6/cyclinD3 and no less than 100 nM against CDK1/cyclinB1.
As to `O=S(=O)(NCCO)c1ccc(Nc2ncc(C(F)(F)F)c(-n3cccn3)n2)cc1F` [Example 123], the IC50 was 10 to 100 nM against CDK2/cyclinE1, no less than 100 nM on CDK4/cyclinD3, no less than 100 nM against CDK6/cyclinD3 and no less than 100 nM against CDK1/cyclinB1.
Consider `O=S(=O)(NC1CC1)c1ccc(Nc2ncc(C(F)(F)F)c(-n3cccn3)n2)cc1` [Example 30], for which the IC50 was 10 to 100 nM on CDK2/cyclinE1, no less than 100 nM against CDK4/cyclinD3, no less than 100 nM against CDK6/cyclinD3 and no less than 100 nM at CDK1/cyclinB1.
For the compound `CNS(=O)(=O)c1ccc(Nc2ncc(C(F)F)c(-n3cc(CC(C)(C)O)cn3)n2)cc1` [Example 66], the IC50 at CDK2/cyclinE1 is 10 to 100 nM; against CDK4/cyclinD3, 10 to 100 nM; on CDK6/cyclinD3 it was 10 to 100 nM; against CDK1/cyclinB1 it was no less than 100 nM.
On to `O=S(=O)(NCCOC1CC1)c1ccc(Nc2ncc(C(F)(F)F)c(-n3cccn3)n2)cc1` [Example 129], for which the IC50 against CDK2/cyclinE1, against CDK4/cyclinD3, at CDK6/cyclinD3 and against CDK1/cyclinB1 was no less than 100 nM throughout.
With `CNS(=O)(=O)c1ccc(Nc2ncc(C(F)(F)F)c(-n3cc([C@H]4C[C@H](O)C4)cn3)n2)cc1` [Example 106, 4-((4-(4-((1r,3r)-3-hydroxycyclobutyl)-1H-pyrazol-1-yl)-5-(trifluoromethyl)pyrimidin-2-yl)amino)-N-methylbenzenesulfonamide], the IC50 at CDK2/cyclinE1 was 10 to 100 nM; against CDK4/cyclinD3, no less than 100 nM; on CDK6/cyclinD3, no less than 100 nM; at CDK1/cyclinB1, no less than 100 nM.
For `CNS(=O)(=O)c1ccc(Nc2ncc(C(F)(F)F)c(-n3cc(C4CCCC4)cn3)n2)cc1` [Example 11, 4-((4-(4-cyclopentyl-1H-pyrazol-1-yl)-5-(trifluoromethyl)pyrimidin-2-yl)amino)-N-methylbenzenesulfonamide], the IC50 is no more than 10 nM against CDK2/cyclinE1, no more than 10 nM at CDK4/cyclinD3, 10 to 100 nM on CDK6/cyclinD3 and 10 to 100 nM on CDK1/cyclinB1.

One may read the IC50 as the concentration that inhibits the measured activity by half. A higher IC50 goes with lower potency.

Values taken from patent US20260308145A1, “CDK2 INHIBITORS AND METHODS OF USING SAME” (Shenzhen lonova Life Science Co., Ltd., priority 2023, published 2026).
